{
  "source": "patent US20250025520A1",
  "about": "“MICROBE-BASED MODULATION OF SEROTONIN BIOSYNTHESIS” (The Regents of the University of California, priority 2014, published 2025)",
  "key": {"colon 5-HT": {"tested_on": "colon 5-HT", "experiment": "Colon 5-HT by ELISA, normalized to total protein", "assay_type": "in vivo, mouse", "conditions": "for effects of a single rectal injection on raising colon 5-HT levels: time course", "excerpt": "(§1) Blood samples were collected by cardiac puncture and spun through SST vacutainers (Becton Dickinson) for serum separation or PST lithium hepararin vacutainers (Becton Dickinson, Franklin Lakes, NJ) for plasma separation. The entire length of the colon or 1 cm regions of the distal, medial and proximal colon of the small intestine were washed in PBS, flushed with PBS to remove luminal contents, and sonicated on ice in 10 s intervals at 20 mV in ELISA standard buffer supplemented with ascorbic acid (Eagle Biosciences, Nashua, NH). Serotonin levels were detected in sera and supernatant of tissue homogenates by ELISA according to the manufacturer's instructions (Eagle Biosciences, Nashua, NH). Readings from tissue samples were normalized to total protein content as detected by BCA assay (Thermo Pierce). Data compiled across multiple experiments are expressed as 5-HT concentrations normalized to SPF controls within each experiment."}, "RIN14B cells": {"tested_on": "RIN14B cells", "experiment": "RIN14B in vitro culture, 5-HT release", "conditions": "for 5-HT in RIN14B chromaffin cell cultures: α-tocopherol 8 uM, butyrate 100 uM, cholate 75 uM, deoxycholate 25 uM, p-aminobenzoate 1 uM, propionate 100 uM, tyramine 100 uM"}, "serum 5-HT": {"tested_on": "serum 5-HT", "experiment": "Serum 5-HT by ELISA", "assay_type": "in vivo, mouse", "excerpt": "as §1"}, "TPH1 in RIN14B cells": {"tested_on": "TPH1 in RIN14B cells", "experiment": "RIN14B in vitro culture, TPH1 expression by qRT-PCR", "conditions": "colonic luminal filtrate, or 15 uM ionomycin; relative to vehicle-treated controls"}, "TPH1": {"tested_on": "TPH1", "experiment": "Intestinal qRT-PCR, colonic TPH1 expression relative to GAPDH", "assay_type": "in vivo, mouse", "description": "The entire length of the mouse colon, or 1 cm regions of the distal, medial and proximal of the mouse small intestine were washed in PBS, flushed with PBS to remove luminal contents, and homogenized in ice-cold Trizol for RNA isolation using the RNeasy Mini Kit with on-column genomic DNA-digest (Qiagen) and cDNA synthesis using iScript (Biorad). qRT-PCR was performed on an ABI 7900 thermocycler using SYBR green master mix with Rox passive reference dye (Roche) and validated primer sets obtained from Primerbank (Harvard)."}, "Tail bleed assay": {"experiment": "Tail bleed assay", "assay_type": "in vivo, mouse", "conditions": "Sp-colonized mice, intrarectal PCPA", "description": "Mice were anesthetized with isoflurane and the distal 6 mm portion of the tail was transected using a fresh razor blade. The tail was placed immediately at a 2 cm depth into a 50 mL conical tube containing saline pre-warmed to 37° C. (Liu et al., World J. Exp. Med. 2:30-36 (2012)). Time to bleeding cessation was recorded, with continued recording if re-bleeding occurred within 15 seconds of initial cessation and a maximum total bleed time of 5 minutes. Mice were sacrificed by CO2 immediately after the assay."}, "[1]": {"tested_on": "colonic enterochromaffin cells (ECs)", "experiment": "Immunofluorescence staining of 5-HT and CgA in colon", "assay_type": "in vivo, mouse", "description": "(§2) Mouse colon was cut into distal, medial and proximal sections, and 1 cm regions of the distal, medial and proximal small intestine were fixed in Bouin's solution (Sigma Aldrich) overnight at 4° C., washed and stored in 70% ethanol. Intestinal samples were then paraffin-embedded and cut into 10 um longitudinal sections by Pacific Pathology, Inc (San Diego, CA). Sections were stained using standard procedures. Briefly, slides were deparaffinized, and antigen retrieval was conducted for 1 hr in a 95° C. water bath in 10 mM sodium citrate, pH 6.0 or DAKO solution (Agilent Technologies). […] For 5-HT and CgA staining, numbers of positively-stained puncta were scored blindly, normalized to total area of intestinal mucosa using ImageJ software (NIH) (Schneider et al., Nature Methods 9:671-675 (2012)), and then averaged across biological replicates. For calretinin, cfos and 5HT4 staining, fluorescence intensity for individual stains was quantified and normalized to total area of intestinal submucosa and muscularis externa using ImageJ software. Colocalization was measured and analyzed using the Coloc2 plug-in for Fiji software described in Schindelin et al., Nature Methods 9:676-682 (2012). […]"}, "SLC6A4": {"tested_on": "SLC6A4", "experiment": "Intestinal qRT-PCR, colonic SLC6A4 expression relative to GAPDH", "assay_type": "in vivo, mouse", "conditions": "Sp-colonized mice, PCPA intrarectally"}, "[2]": {"tested_on": "intrinsic afferent primary neurons (IPANs) of the myenteric plexus", "experiment": "c-fos and calretinin (Calb2) colocalization", "assay_type": "in vivo, mouse", "conditions": "Sp-colonized mice treated with PCPA", "description": "as §2"}, "platelets": {"tested_on": "platelets", "experiment": "Platelet aggregation assay, collagen stimulation, flow cytometry", "assay_type": "in vivo, mouse", "conditions": "Sp-colonized mice, colonic PCPA injection", "description": "Blood samples were collected by cardiac puncture, diluted with a 2× volume of HEPES medium (132 mM NaCl, 6 mM KCl, 1 mM MgSO4, 1.2 mM KH2PO4, 20 mM HEPES, 5 mM glucose; pH 7.4) and centrifuged through PST lithium hepararin vacutainers (Becton Dickinson). Expression of platelet activation markers was measured by flow cytometry (Nieswandt et al., Methods Mol. Biol. 272:255-268 (2004); Ziu et al., J. Mol. Cell. Cardiol. 52:1112-1121 (2012)). Briefly, PRP samples were supplemented with 1 mM CaCl2, and 1×10^6 platelets were stimulated with 10 μg/ml type-1 HORM collagen (Chronolog), and stained with anti-JON/APE, anti-P-selectin-FITC (Emfret Analytics), anti-CD63-PE (Biologend), anti-CD41-FITC (BD Biosciences) and anti-CD9-APC (Abcam) for 15 min at room temperature. Samples were then washed in PBS, fixed with 0.5% formaldehyde and analyzed using a FACS Calibur flow cytometer (BD Biosciences). Platelet aggregation assays were conducted according to methods described in (De Cuyper et al., Blood 121:070-e80 (2013)). Briefly, 4×10^6 platelets were stained separately with CD9-APC or CD9-PE (Abcam) for 15 minutes at room temperature and then washed with HEPES medium. Labeled platelets were mixed 1:1 and incubated for 15 minutes at 37° C., with shaking at 600 rpm. Platelets were then stimulated with 10 μg/ml type-1 collagen for 2 min and fixed in 0.5% formaldehyde for flow cytometry. […]"}, "[3]": {"conditions": "GF mice, intrarectal injection: deoxycholate 125 mg/kg, α-tocopherol 2.25 mg/kg, PABA 1.37 μg/kg, tyramine 0.137 mg/kg, oleanolate 0.46 mg/kg, vs vehicle"}, "[4]": {"conditions": "GF mice, oral supplementation in water 1.5 mg/ml, 2 weeks"}, "[5]": {"conditions": "GF mice colonized with hSp, PCPA treatment"}, "[6]": {"conditions": "Sp-colonized GF mice, PCPA intrarectally twice daily for 3 days"}},
  "data": [
    {"compound": "NCCc1ccc(O)cc1", "note": "[tyramine]", "values": [
      {"measurement": "colon 5-HT", "setting": "colon 5-HT; [3]", "result": "Increases"},
      {"measurement": "5-HT in RIN14B chromaffin cell cultures", "setting": "RIN14B cells", "result": "elevate 5-HT"},
      {"measurement": "serum 5-HT", "setting": "serum 5-HT; [3]", "result": "Increases"}
    ]},
    {"compound": "C[C@H](CCC(=O)O)C[C@H](C)C[C@H](C)C(=O)/C=C(\\O)[C@H](C)C[C@H](C)C/C=C/[C@@H](C)[C@@H](O)[C@@H](C)[C@@H](O)C[C@@H]1CC[C@@](C)([C@H]2CC[C@@](C)([C@@H](C)O)O2)O1", "note": "[ionomycin, reference compound]", "values": [
      {"measurement": "TPH1 expression in RIN14B cells", "setting": "TPH1 in RIN14B cells", "result": "no effect on TPH1 expression"},
      {"measurement": "5-HT released from RIN14B cells", "setting": "RIN14B cells; colonic luminal filtrate 1 hr at 37° C., or 15 uM ionomycin, relative to vehicle-treated controls", "result": "stimulates 5-HT release"}
    ]},
    {"compound": "N[C@@H](Cc1c[nH]c2ccccc12)C(=O)O", "note": "[Trp, tryptophan]", "values": [
      {"measurement": "colon 5-HT", "setting": "colon 5-HT; [4]", "result": "no restorative effect"},
      {"measurement": "serum 5-HT", "setting": "serum 5-HT; [4]", "result": "no restorative effect"}
    ]},
    {"compound": "CC1(C)CC[C@]2(C(=O)O)CC[C@]3(C)C(=CC[C@@H]4[C@@]5(C)CC[C@H](O)C(C)(C)[C@@H]5CC[C@]43C)[C@@H]2C1", "note": "[oleanolate]", "values": [
      {"measurement": "colon 5-HT", "setting": "colon 5-HT; [3]", "result": "no statistically significant effect"},
      {"measurement": "serum 5-HT", "setting": "serum 5-HT; [3]", "result": "no statistically significant effect"}
    ]},
    {"compound": "Bacteroides fragilis", "values": [
      {"measurement": "serum 5-HT levels", "setting": "serum 5-HT; GF mice colonized, monoassociated or conventionalized, compared with GF and SPF controls", "result": "deficits in serum 5-HT that are comparable to those seen in GF mice"}
    ]},
    {"compound": "deoxycholate", "values": [
      {"measurement": "colon 5-HT", "setting": "colon 5-HT; [3]", "result": "sufficiently increases"},
      {"measurement": "effects of a single rectal injection on raising colon 5-HT levels", "setting": "colon 5-HT; GF mice", "result": "weak and transient"},
      {"measurement": "5-HT in RIN14B chromaffin cell cultures", "setting": "RIN14B cells", "result": "elevate 5-HT"},
      {"measurement": "colonic TPH1 expression", "setting": "TPH1; GF mice, intrarectal deoxycholate 125 mg/kg, 1 hr post injection", "result": "elevations in colonic TPH1 expression"},
      {"measurement": "serum 5-HT", "setting": "serum 5-HT; [3]", "result": "sufficiently increases"}
    ]},
    {"compound": "CCC(=O)O", "note": "[propionate]", "values": [
      {"measurement": "5-HT in RIN14B chromaffin cell cultures", "setting": "RIN14B cells", "result": "elevate 5-HT"}
    ]},
    {"compound": "Cc1c(C)c2c(c(C)c1O)CC[C@@](C)(CCC[C@H](C)CCC[C@H](C)CCCC(C)C)O2", "note": "[α-tocopherol]", "values": [
      {"measurement": "colon 5-HT", "setting": "colon 5-HT; [3]", "result": "Increases"},
      {"measurement": "effects of a single rectal injection on raising colon 5-HT levels", "setting": "colon 5-HT; GF mice", "result": "weak and transient"},
      {"measurement": "5-HT in RIN14B chromaffin cell cultures", "setting": "RIN14B cells", "result": "elevate 5-HT"},
      {"measurement": "serum 5-HT", "setting": "serum 5-HT; [3]", "result": "Increases"}
    ]},
    {"compound": "N[C@@H](Cc1ccc(Cl)cc1)C(=O)O", "note": "(racemic) [PCPA, parachlorophenylalanine]", "values": [
      {"measurement": "Sp effect on bleeding time", "setting": "Tail bleed assay", "result": "attenuated"},
      {"measurement": "5-HT staining in colonic ECs", "setting": "[1]; [5]", "result": "blocking increases"},
      {"measurement": "5-HT staining in ECs", "setting": "[1]; [6]", "result": "sufficiently blocks"},
      {"measurement": "colon 5-HT", "setting": "colon 5-HT; [5]", "result": "blocking increases"},
      {"measurement": "colon 5-HT levels", "setting": "colon 5-HT; [6]", "result": "sufficiently blocks the ability of Sp to elevate"},
      {"measurement": "colonic SLC6A4 expression", "setting": "SLC6A4", "result": "decrease in SLC6A4"},
      {"measurement": "IPAN activation", "setting": "[2]", "result": "decreases IPAN activation"},
      {"measurement": "Sp effect on platelet aggregation", "setting": "platelets", "result": "attenuated"},
      {"measurement": "colonic TPH1 expression", "setting": "TPH1; Sp-colonized mice, PCPA intrarectally", "result": "compensatory increase in colonic TPH1"},
      {"measurement": "serum 5-HT", "setting": "serum 5-HT; [5]", "result": "blocking increases"},
      {"measurement": "serum 5-HT levels", "setting": "serum 5-HT; [6]", "result": "sufficiently blocks the ability of Sp to elevate"}
    ]},
    {"compound": "C[C@H](CCC(=O)O)[C@H]1CC[C@H]2[C@@H]3[C@H](O)C[C@@H]4C[C@H](O)CC[C@]4(C)[C@H]3C[C@H](O)[C@]12C", "note": "[cholate]", "values": [
      {"measurement": "5-HT in RIN14B chromaffin cell cultures", "setting": "RIN14B cells", "result": "elevate 5-HT"}
    ]},
    {"compound": "N[C@@H](Cc1c[nH]c2ccc(O)cc12)C(=O)O", "note": "[5-HTP, 5-hydroxytryptophan]", "values": [
      {"measurement": "colon 5-HT", "setting": "colon 5-HT; [4]", "result": "sufficiently ameliorates deficits"},
      {"measurement": "serum 5-HT", "setting": "serum 5-HT; [4]", "result": "sufficiently ameliorates deficits"}
    ]},
    {"compound": "Nc1ccc(C(=O)O)cc1", "note": "[PABA, p-aminobenzoate]", "values": [
      {"measurement": "colon 5-HT", "setting": "colon 5-HT; [3]", "result": "Increases"},
      {"measurement": "5-HT in RIN14B chromaffin cell cultures", "setting": "RIN14B cells", "result": "elevate 5-HT"},
      {"measurement": "serum 5-HT", "setting": "serum 5-HT; [3]", "result": "Increases"}
    ]}
  ]
}
